Results taken from patent US7429564B2, “Oral insulin therapy” (Emisphere Technologies, Inc., priority 2002, dated 2008).

Legend:
[1] = Example 5: plasma insulin pharmacokinetics, healthy male volunteers; conditions: human, in vivo
Experimental: In Group 1, there were four escalating single doses of 4-CNAB (400, 800, 1400 and 2000 mg) and each subject received either all four of these escalating doses or three escalating single doses and one dose of placebo. […] In Group 3 there were three escalating oral doses of Insulin/4-CNAB (100 Units/300 mg, 100 Units/450 mg and 150 Units/100 mg) and one SC dose of 150 Units of insulin. Each subject received either all four of these treatments or three of these treatments and one placebo treatment. For all groups, there was a washout period of at least 72 hours between treatment periods.
(§1) For insulin/4-CNAB treatment Groups 2 and 3, subjects' blood samples (1 drop per sample) were drawn at 15 minutes before dosing, and at 5, 10, 15, 20, 25, 30, 35, 40, and 50 minutes and at 1, 1.25, 1.5, 1.75, 2, 2.5, 3, 4, 6, 8 and 12 hours post-dose (21 samples per treatment for Insulin/4-CNAB dosing groups) for plasma glucose, insulin and C-peptide measurements. For the 4-CNAB alone treatment Group 1, blood samples were collected before dosing (−15 minutes), and at 30 minutes and at 2 hr post-dose for blood glucose measurements. For the insulin alone control group (minimum 3 subjects), blood samples (3 mL in sodium heparin tube) were drawn at 15 minutes before dosing, and at 10, 20, 30, 40, 50 minutes and 1, 1.25, 2, 2.5, 3 and 6 hr post-dose (12 samples per treatment). The blood samples for glucose were assayed in real time using a Glucometer®. These measurements were used for detection of onset of hypoglycemia, so rescue action could be taken where necessary. Plasma glucose, insulin and C-peptide measurements were done according to standard procedures.
On the basis of plasma concentrations of 4-CNAB and insulin, PK analysis was performed using non-compartmental PK methods as implemented in WinNonlin™ Professional version 3.2. The profiles for insulin and C-peptide corrected insulin were evaluated up to 6 hours as food was given 6 hours following insulin treatment. The following parameters were derived for 4-CNAB: Cmax, tmax, AUC(0-t), AUC(0-inf), AUC% Extrap, Kel, t1/2, CL/F, Vd/F, MRT(0-t), MRT(0-inf) and Frel. The following parameters were derived for insulin and C-peptide corrected insulin: Cmax, tmax, AUC(0-2), AUC(0-6), AUC(0-t) and concentrations (C^b) and corresponding time (t^b) immediately prior to intervention for hypoglycemia.
The plasma concentration-time profiles for 4-CNAB were evaluated in those subjects who received 4-CNAB or Insulin/4-CNAB treatments. Insulin, C-peptide and glucose concentration-time profiles following administration of all treatments were evaluated for the 20 subjects in Groups 2 and 3. Pharmacokinetic (“PK”) parameters for 4-CNAB, insulin and C-peptide corrected insulin, and pharmacodynamic (“PD”) parameters for glucose concentration change from baseline, respectively were calculated for subjects whether they required hypoglycemic rescue or not. Concentrations from subjects who required food/drink due to hypoglycemia were excluded from descriptive statistics.

plasma C-peptide [2] = experiment: Example 5: plasma C-peptide; type: in vivo, human
Experimental: as §1, with “Plasma glucose, insulin and C-peptide measurements were done according to standard procedures.” left out
Plasma C-peptide was measured using a DELFIA C-peptide kit, based on a solid phase, two-site fluoroimmunometric assay, which used the direct sandwich technique in which two monoclonal antibodies are directed against antigenic determinants on the C-peptide molecule. […] The fluorescence is directly proportional to the concentration of C-peptide in the sample.

[3] = Example 7: 4-CNAB plasma concentrations; type: in vivo, human; conditions: after start of meal intake; 200 or 400 mg 4-CNAB
Experimental: Blood samples for determination of 4-CNAB plasma concentrations (2 mL in sodium heparin tube) were drawn 10, 20, 30, 40, 60, 90, 120, 240 and 360 minutes after start of meal intake (9 samples per session). Blood samples for determination of insulin and C-peptide plasma concentrations (5 mL in sodium heparin tube) were drawn at −60 and −30 minutes, at time 0 (start of meal intake), and after 10, 20, 30, 40, 50, 60, 75, 90, 105, 120, 150, 180, 210, 240, 300, and 360 minutes (19 samples per session). Plasma concentrations of insulin were determined by a GLP-validated microparticle enzyme immunoassay (MEIA).

[4] = Example 5: safety and tolerability; conditions: 4-CNAB alone, oral 400-2000 mg
Text: Safety assessments included physical examinations, medical history, vital signs, 12-lead electrocardiogram (ECG) monitoring, laboratory evaluations and checking for adverse events. Activity parameters included blood glucose, insulin, C-peptide, and 4-CNAB plasma concentration measurements.

plasma C-peptide [5] = experiment: Example 6: plasma C-peptide during glucose clamp; type: in vivo, human; conditions: for C-peptide level, mean: 15 U SC
Experimental: During each study period, blood samples were collected for the determination of plasma insulin concentrations, plasma C-peptide and plasma glucose concentration. Sampling occurred from 6 hrs before dosing and continued for 6 hrs after the dose was administered. Blood samples were collected via a venous cannula. Blood samples were collected relative to the administration of the study drug (1) prior to study of drug administration at −1 and −0.5 hrs, (2) immediately after study drug administration (time 0), and (3) post administration of the study drug at 10, 20, 30, 40, 50 min, and 1, 1.25, 1.5, 1.75, 2, 2.5, 3, 3.5, 4, 5, and 6 hrs
Blood samples were collected from each patient during each treatment period for determination of plasma insulin concentrations, plasma C-peptide, and plasma glucose. Glucose infusion rates and blood glucose measurements were measured continuously during the glucose clamp procedure. All treatments were identical in their sample collection and monitoring periods for all visits. After a 6 hours pre-dose baseline period for stabilization of blood glucose concentrations at the desired clamp level, the clamp procedure after study drug administration lasted 6 hours.

oral insulin alone: recombinant human zinc insulin given orally without delivery agent
Cmax ([1]; po): 0.0384 nM
Insulin AUC(0-2) ([1]; po): 51.8 ± 15.5 pmol·h/L
Insulin tmax, median ([1]; po): 0.43 h
Change in C-peptide concentrations from baseline (plasma C-peptide [2]; 150 Units oral insulin alone): little change in C-peptide concentrations from baseline

O=C(O)CCCNC(=O)c1ccc(Cl)cc1O [4-CNAB, 4-[(4-chloro, 2-hydroxybenzoyl)amino]butanoic acid]
4-CNAB plasma concentration after 2 hours relative to level at 10 minutes [3]: less than 10%
Tolerability [4]: well tolerated

SC insulin: human regular insulin injected subcutaneously (Humulin R or equivalent; Calbiochem insulin in the rat studies)
Cmax ([1]; sc): 0.375 nM
Insulin AUC(0-2) ([1]; sc): 414.3 ± 181.5 pmol·h/L
Insulin AUC(0-6) ([1]; sc): 1228.5 ± 378.1 pmol·h/L
Insulin C^b (immediately prior to recovery from hypoglycemia) ([1]; sc): 168.3 ± 77.5 pmol/L
Insulin Cmax ([1]; sc): 54.5 ± 25.6 uU/ml
Insulin t^b, median (range) ([1]; sc): 1.00 (0.75-1.25) h
Insulin tmax ([1]; sc): 1.75 h
Insulin tmax, median (range) ([1]; sc): 1.88 (1.58-4.00) h
Change in C-peptide during treatment periods (plasma C-peptide [5]; 15 IU s.c., 300 IU oral and 150 IU oral): no significant changes
C-peptide level, mean (plasma C-peptide [5]; 10 minutes): 1.05 nmol/L
C-peptide level, mean (plasma C-peptide [5]; 20 minutes): 1.07 nmol/L
C-peptide level, mean (plasma C-peptide [5]; 30 minutes): 1.09 nmol/L
C-peptide level, mean (plasma C-peptide [5]; 40 minutes): 1.11 nmol/L
C-peptide level, mean (plasma C-peptide [5]; 50 minutes): 1.05 nmol/L
C-peptide level, mean (plasma C-peptide [5]; 60 minutes): 1.04 nmol/L
C-peptide level, mean (plasma C-peptide [5]; 75 minutes): 1.07 nmol/L
C-peptide level, mean (plasma C-peptide [5]; 90 minutes): 1.03 nmol/L
C-peptide level, mean (plasma C-peptide [5]; 105 minutes): 1.01 nmol/L
C-peptide level, mean (plasma C-peptide [5]; 120 minutes): 0.99 nmol/L
C-peptide level, mean (plasma C-peptide [5]; 150 minutes): 1.01 nmol/L
C-peptide level, mean (plasma C-peptide [5]; 180 minutes): 0.99 nmol/L
C-peptide level, mean (plasma C-peptide [5]; 210 minutes): 0.97 nmol/L
C-peptide level, mean (plasma C-peptide [5]; 240 minutes): 0.94 nmol/L
C-peptide level, mean (plasma C-peptide [5]; 300 minutes): 0.96 nmol/L
C-peptide level, mean (plasma C-peptide [5]; 360 minutes): 0.92 nmol/L
C-peptide level, mean (plasma C-peptide [5]; Time 0): 1.04 nmol/L
C-peptide level, mean (plasma C-peptide [5]; −30 minutes): 1.05 nmol/L
C-peptide level, mean (plasma C-peptide [5]; −60 minutes): 1.02 nmol/L
% Max C-peptide Reduction (plasma C-peptide [2]; 10 Units SC, carrier 0, unaudited data): 54.3 ± 9.8%
